Data taken from patent US20250052744A1, “Dyes and Uses Thereof” (The University of Liverpool, priority 2021, published 2025).

What was measured:
Assay in all cases: Qualitative dye staining on agarose pads (EVOS M7000)
Type in all cases: cell-based
Parameters in all cases: key to Relative fluorescent intensity: Very high: If the cells looked twice as big in the fluorescent channel, it was marked as having “very high” relative fluorescent intensity; High: if the cells looked bigger in the fluorescent channel, it was marked as having “high” relative fluorescent intensity; Medium: If the cells looked almost the same size in the fluorescent channel and the bright field, it was marked as having “medium” relative fluorescent intensity; Low: If the cells looked smaller in the fluorescent channel as compared to the brightfield but still the whole cell was visible, it was marked as having “low” relative fluorescent intensity; Negligible: If only a few traces of a cell was visible in the fluorescent channel, it was marked as having “negligible” relative fluorescent intensity
Cory. Urealyticum = conditions: DiSC3(5) 3 μM, SYBR Green I 10×, SYTO 13 3 μM, FM4-64 15 μM
Protocol: (§1) An overnight culture was prepared by inoculating a bacterial colony in approximately 5 ml of Urine and incubating the culture in an orbital shaker at 37° C.
(§2) The following media and materials were utilised: Cation-adjusted Mueller Hinton broth (MHB); Phosphate Buffered Saline (PBS); Membrane staining dye—FM4-64 (1.5 mM); Live cell staining dye—DiSC3(5) (1 mM); DNA staining dye—SYBR Green (1000×); DNA staining dye—SYTO 13 (0.5 mM); Ultrapure Agarose; Parafilm; Glass slides and coverslips; Scalpel; and EVOS M7000 fluorescent microscope.
(§3) A pre-cut parafilm or a coverslip was used as a guide and 22 mm×22 mm squares cut from parafilm. A square was cut out of the centre of the parafilm (approximately 10 mm×10 mm). The centre of the cut-out was discarded. Two parafilm gaskets were placed onto a cleaned glass slide. The glass slide was then placed on a dry bath set to 56° C. so that the parafilm adhered to the glass slide. The glass slide was then kept on the dry bath. Using a microwave, ultrapure agarose was dissolved in PBS at a concentration of 1.2%. The agarose solution was kept on a dry bath set at 56° C. 60 μl of the agarose solution was pipetted in the centre of the parafilm gaskets. A coverslip was then placed over the gaskets without applying pressure on the coverslip. The slide was then placed on a cool surface and left to solidify for 1-2 minutes. The coverslips were then gently lifted off the agarose pads.
(§4) In a first Eppendorf, 15 μl of FM4-64 and 6 μl of SYTO 13 was added and in a second Eppendorf 10 μl of SYBR Green and 3 μl of DiSC3(5) was added. Depending on the bacterial growth in urine, an appropriate concentration of the bacterial culture was placed in the two Eppendorfs (final bacterial concentration 10^6 CFU/ml). MHB was added so as to achieve a final volume of 1 ml. Final concentrations of the dyes in the sample was as follows: DiSC3(5): 3 μM; SYBR Green I: 10× (originally supplied as 10,000×); SYTO 13: 3 μM; and FM4-64: 15 μM
(§5) 4 μl of the contents of each Eppendorf were deposited on one agarose pad and the cells distributed across the agar surface by tilting the slide. The slide was left to dry for approximately 1 minute. A coverslip was then placed on top of the agarose pad. The slide was placed inside the microscope and incubated at 37° C. for 10 minutes. Using different light filters for each dye, an image of each pad at 40× magnification on an EVOS M7000 fluorescent microscope was captured. Eight images for each agarose pad was recorded (i.e. 8 each for brightfield and 2 fluorescent channels). For each agarose pad, 24 images were recorded. This corresponded to 48 images in total for each bacterial strain (2 agarose pads per strain). Table A below was used to take the images using the correct fluorescent channel and intensity (for imagining on any other instrument, the LED intensity will need to be normalised against the EVOS M7000).
(§6) To qualitatively calculate the relative fluorescent intensities, cell size was compared between brightfield and the fluorescent channel for a given fluorescent dye. If the cells are very fluorescent, they will appear bigger in the fluorescent channel as compared to the bright field. For our qualitative measurements, if the cells looked bigger in the fluorescent channel, it was marked as having “high” relative fluorescent intensity. If the cells looked twice as big in the fluorescent channel, it was marked as having “very high” relative fluorescent intensity. If the cells looked almost the same size in the fluorescent channel and the bright field, it was marked as having “medium” relative fluorescent intensity. If the cells looked smaller in the fluorescent channel as compared to the brightfield but still the whole cell was visible, it was marked as having “low” relative fluorescent intensity. If only a few traces of a cell was visible in the fluorescent channel, it was marked as having “negligible” relative fluorescent intensity.

Proteus vulgaris = conditions: DiSC3(5) 3 μM, SYBR Green I 10×, SYTO 13 3 μM, FM4-64 15 μM
Protocol: as §1, §2, §3, §4, §5, §6

Proteus = conditions: Table 6 thresholds, DiSC3(5) 3 μM, SYBR Green I 10×, SYTO 13 3 μM, FM4-64 15 μM
Protocol: as §1, §2, §3, §4, §5, §6

[1] = Table 8 sample Cory. Urealyticum (1001)
[2] = Table 8 sample Cory. Urealyticum (1002)
[3] = Table 8 sample Proteus vulgaris (024)
[4] = Table 8 sample Proteus vulgaris (025)
[5] = Table 8 sample Proteus vulgaris (026)

| SMILES | Percentage of cells stained (Cory. Urealyticum; [1]) | Relative fluorescent intensity (Cory. Urealyticum; [1]) | Percentage of cells stained (Cory. Urealyticum; [2]) | Relative fluorescent intensity (Cory. Urealyticum; [2]) | Percentage of cells stained (Proteus vulgaris; [3]) | Relative fluorescent intensity (Proteus vulgaris; [3]) | Percentage of cells stained (Proteus vulgaris; [4]) | Relative fluorescent intensity (Proteus vulgaris; [4]) | Percentage of cells stained (Proteus vulgaris; [5]) | Relative fluorescent intensity (Proteus vulgaris; [5]) | Percentage of cells stained (Proteus) | Relative fluorescent intensity (Proteus) | Relative fluorescent intensity (Proteus; listed as FM4-64) |
| --- | --- | --- | --- | --- | --- | --- | --- | --- | --- | --- | --- | --- | --- |
| CCCN1C(=CC=CC=Cc2sc3ccccc3[n+]2CCC)Sc2ccccc21.[I-] [DiSC3(5), 3,3′-Dipropylthiadicarbocyanine Iodide] | Few | Negligible | Few | Negligible | Almost all | Low | Few | Medium | Almost all | Low | Half | Low-Medium |  |
| CCN(CC)c1ccc(C=CC=CC=Cc2cc[n+](CCC[N+](CC)(CC)CC)cc2)cc1.[Br-].[Br-] [FM 4-64, N-(3-Triethylammoniumpropyl)-4-(6-(4-(Diethylamino) Phenyl) Hexatrienyl) Pyridinium Dibromide] | Few | Negligible | Few | Negligible | Few | Negligible | Few | Negligible | Few | Negligible | Few | no staining or negligible | Negligible |
| CCCN(CCCN(C)C)c1cc(/C=C2/Sc3ccccc3N2C)c2ccccc2[n+]1-c1ccccc1 [SYBR Green I, N′,N′-dimethyl-N-[4-[(E)-(3-methyl-1,3-benzothiazol-2-ylidene)methyl]-1-phenylquinolin-1-ium-2-yl]-N-propylpropane-1,3-diamine] | Few | Negligible | Few | Negligible | Half | Low | Half | Low | Almost all | Low | Half | Low |  |
